Test results: patent publication US12534477B2, “Compound having KHK inhibitory effect” (HANGZHOU ZHONGMEIHUADONG PHARMACEUTICAL CO., LTD., priority 2019, dated 2026)
pIC50: −log10 of the molar value. Where two headings read alike, the source gives them in different places.

How the values were obtained:
[1] = target: Recombinant Human Ketohexokinase (KHK) (Homo sapiens (Human), UniProt P50053); test: Ketohexokinase assay (KHK assay), ADP-Glo; type: biochemical
Protocol: • 1. EnVision multilabel reader, Perkin Elmer; • 2. OptiPlate 384-well microplate, Perkin Elmer, Cat. No. 6007290; • 3. Recombinant Human Ketohexokinase (KHK), R&D Cat. No.: 8177-HK-020, Lot No.: DDFK0117092; • 4. Fructose (D(−)-Fructose), SCR Cat. No.: 36003034; and • 5. ADP-Glo kinase assay kit, Promega_Cat. No.: V9101.
1. preparation of Dilution Buffer containing 50 mM hydroxyethylpiperazine […] (Hepes), 140 mM KCl, 3.5 mM MgCl2, and 0.01% bovine serum albumin (BSA), pH 7.4.
2. A working solution of ketohexokinase at 2.5 times concentration was prepared with Dilution Buffer, with 50 nM ketohexokinase and 12.5 mM fructose.
3. A working solution of adenosine triphosphate (ATP) at 2.5 times concentration was prepared with Dilution Buffer, with a concentration of 250 μM.
4. Each compound was diluted starting at a concentration of 500 μM, 3-fold diluted for 9 concentration points. The final concentration of the compound in the reaction system started from 10 μM and the final concentration of dimethyl sulfoxide (DMSO) was 2%.
5. A 96-well plate was prepared as a reaction plate, and was incubated at room temperature for 5 min after adding 6 μL ketohexokinase working solution at 2.5 times concentration to each well and further adding 3 μL compound working solution to each well.
6. The first well of each row was a positive control for a compound, i.e. the same volume of the buffer was added to replace the compound and ketohexokinase. The last well was a negative control for the compound, i.e. the same volume of Dilution Buffer was added instead of the compound.
7. 6 μL ATP working solution was added to each well in a 96-well reaction plate to initiate the kinase reaction. The kinase reaction was incubated in a constant temperature heater at 28° C. for 1 h.
1. A384 plate was prepared as a detection plate, and firstly 5 μL ADP-Glo reagent was added.
2. 5 μL kinase reaction mixture from the reaction plate was added to each well and incubated in a constant temperature heater at 28° C. for 30 min.
3. 10 μL kinase detection reagent was added to each well and incubated in a constant temperature heater at 28° C. for 30 min.
4. The detection plate was placed in an EnVision multilabel reader to read the chemiluminescent signal.

[2] = Liver-blood ratio, tissue distribution in rats; type: in vivo, SD rats; conditions: SD, rat, 1 mg/kg, PO 1 mpk
Protocol: Tissue distribution of compounds in SD rats was tested.
In the experiment, candidate compounds were formulated as clear solutions and administered to rats in a single oral dose (PO, 1 mpk). The vehicle for oral administration was a certain proportion of methylcellulose and Tween 80 in water. Whole blood was collected at a certain time and plasma was prepared, and tissues were collected at the corresponding time and prepared into tissue homogenates. Drug concentration was analyzed by LC-MS/MS, and pharmacokinetic parameters were calculated by Phoenix WinNonlin software.

[3] = test system: fructose metabolism in mice; test: Acute fructose feeding experiment in mice; type: in vivo; conditions: compound 30 mpk, oral fructose 1 g/kg
Protocol: The effect of test compounds on the fructose content in mice with high fructose intake was investigated.
All animals were acclimated for one week in an animal house, fed with normal chow and fasted for 16 hours before being given fructose.
1) The experiment began at −0.5 hr. A control group was given a certain volume of vehicle (a certain proportion of methylcellulose and Tween 80 in water), and an experimental group was given a certain dose of a solution of the compound (the administered volume was consistent with the vehicle).
2) 0.5 hour later and before administration of a fructose solution, a blood sample was collected at 0 hr, followed by oral administration of 1 g/kg of an aqueous fructose solution.
3) After the administration of fructose, blood samples were collected from saphenous vein of mice at 0.25, 0.5, 1, 2, 3 and 8 hr, and fructose concentration was analyzed by LC-MS/MS.

Sequence of Recombinant Human Ketohexokinase (KHK) (P50053 whole entry): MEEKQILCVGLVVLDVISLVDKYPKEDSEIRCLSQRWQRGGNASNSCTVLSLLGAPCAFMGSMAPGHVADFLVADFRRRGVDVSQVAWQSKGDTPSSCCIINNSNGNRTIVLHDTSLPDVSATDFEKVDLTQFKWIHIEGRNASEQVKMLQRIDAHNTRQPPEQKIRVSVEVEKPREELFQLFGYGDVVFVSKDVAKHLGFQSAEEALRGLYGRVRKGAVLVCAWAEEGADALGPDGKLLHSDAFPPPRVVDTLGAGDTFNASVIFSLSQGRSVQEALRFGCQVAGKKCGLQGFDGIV

pIC50 [1]	Structure (SMILES)	further results
6.72	C[C@H]1CCN1c1nc(N2C[C@@H]3[C@@H](CC(=O)O)[C@@H]3C2)c2scnc2n1 [WX002]	–
6.96	C[C@H]1CCN1c1nc(Nc2ccc(CC(=O)O)cc2)c2ncsc2n1 [WX003]	–
6.19	C[C@H]1CCN1c1nc(N2C[C@@H]3[C@@H](CC(=O)O)[C@@H]3C2)nc2ncsc12 [WX005]	–
7.80	Cc1csc2nc(N3CC[C@@H]3C)nc(Nc3ccc(CC(=O)O)cc3)c12 [WX007]	–
6.68	Cc1csc2nc(N3CC[C@@H]3C)nc(N3C[C@@H]4C(CC(=O)O)[C@@H]4C3)c12 (stereo partly shown) [WX008]	–
7.00	C[C@H]1CCN1c1nc(N2CC3(CC3C(=O)O)C2)c2ccsc2n1 (stereo partly shown) [WX009]	–
7.82	C[C@H]1CCN1c1nc(Nc2ccc(CC(=O)O)c(F)c2)c2ccsc2n1 [WX010]	–
7.77	C[C@H]1CCN1c1nc(Nc2ccc(C(=O)O)c(C#N)c2)c2ccsc2n1 [WX011]	–
8.03	C[C@H]1CCN1c1nc(Nc2ccc(C(=O)O)cc2)c2ccsc2n1 [WX012]	concentration at 1.5 h ([2]; liver, 1.5 h, read-out: Liver tissue concentration): 2100 nM; concentration at 2 h ([2]; liver, 2.0 h, read-out: Liver tissue concentration): 618 nM; concentration at 6 h ([2]; liver, 6.0 h, read-out: Liver tissue concentration): 634 nM; Kp at 1.5 h ([2]; liver/plasma, 1.5 h, read-out: Liver-blood ratio): 2.62; Kp at 2 h ([2]; liver/plasma, 2.0 h, read-out: Liver-blood ratio): 2.32; Kp at 6 h ([2]; liver/plasma, 6.0 h, read-out: Liver-blood ratio): 4.39; concentration at 1.5 h ([2]; plasma, 1.5 h, read-out: Plasma concentration): 810 nM; concentration at 2 h ([2]; plasma, 2.0 h, read-out: Plasma concentration): 273 nM; concentration at 6 h ([2]; plasma, 6.0 h, read-out: Plasma concentration): 145 nM
7.85	C[C@H]1CCN1c1nc(Nc2cc(F)c(CC(=O)O)c(F)c2)c2ccsc2n1 [WX014]	–
8.17	C[C@H]1CCN1c1nc(Nc2cc(F)c(C(=O)O)c(F)c2)c2ccsc2n1 [WX015]	–
7.49	C[C@H]1CCN1c1nc(-c2cccc(CCC(=O)O)c2)c2ccsc2n1 [WX016]	–
7.70	C[C@H]1CCN1c1nc(-c2cccc(/C=C/C(=O)O)c2)c2ccsc2n1 [WX017]	–
6.41	C[C@H]1CCN1c1nc(N2CC(CC(=O)O)C2)c2ccsc2n1 [WX018]	–
6.96	C[C@H]1CCN1c1nc(N2CC3(C[C@H]3C(=O)O)C2)c2ccsc2n1 [WX019]	AUC of integral fructose concentration for dosed group [3]: 849 nM·h; AUC of integral fructose concentration of dosed group/AUC of Integral fructose concentration of control group [3]: 6.1
6.89	C[C@H]1CCN1c1nc(N2CC3(C[C@@H]3C(=O)O)C2)c2ccsc2n1 [WX020]	AUC of integral fructose concentration for dosed group [3]: 1180 nM·h; AUC of integral fructose concentration of dosed group/AUC of Integral fructose concentration of control group [3]: 8.5
6.80	C[C@H]1CCN1c1nc2c(c(N3C[C@@H]4[C@@H](CC(=O)O)[C@@H]4C3)n1)CSC2 [WX021]	–
6.70	C[C@H]1CCN1c1nc(-c2ccc(CC(=O)O)c(F)c2)c2ccsc2n1 [WX022]	–
6.68	C[C@H]1CCN1c1nc(N2C[C@@H]3[C@@H](CC(=O)O)[C@@H]3C2)c2scc(C#N)c2n1 [WX023]	–
7.21	C[C@H]1CCN1c1nc(N2C[C@@H]3[C@@H](CC(=O)O)[C@@H]3C2)c2cccc(F)c2n1 [WX024]	AUC of integral fructose concentration for dosed group [3]: 1858 nM·h; AUC of integral fructose concentration of dosed group/AUC of Integral fructose concentration of control group [3]: 13.4
6.62	C[C@H]1CCN1c1nc(N2CC[C@H](CC(=O)O)C2)c2ccsc2n1 [WX025]	–
7.04	C[C@H]1CCN1c1nc2c(c(N3C[C@@H]4[C@@H](CC(=O)O)[C@@H]4C3)n1)CCS2 [WX026]	AUC of integral fructose concentration for dosed group [3]: 993 nM·h; AUC of integral fructose concentration of dosed group/AUC of Integral fructose concentration of control group [3]: 8.9
6.60	C[C@H]1CCN1c1nc(N2CCC3(CC3C(=O)O)C2)c2ccsc2n1 (stereo partly shown) [WX027]	–
7.30	C[C@H]1CCN1c1nc(N2C[C@@H]3[C@@H](CC(=O)O)[C@@H]3C2)c2cc(F)sc2n1 [WX028]	–

pIC50 [1]	Structure (SMILES)	further results
7.55	C[C@H]1CCN1c1nc(N2C[C@@H]3[C@@H](CC(=O)O)[C@@H]3C2)c2cc(Cl)sc2n1 [WX029]	AUC of integral fructose concentration for dosed group [3]: 1687 nM·h; AUC of integral fructose concentration of dosed group/AUC of Integral fructose concentration of control group [3]: 15.1
7.51	C[C@H]1CCN1c1nc(N2C[C@@H]3[C@@H](CC(=O)O)[C@@H]3C2)c2c(F)csc2n1 [WX030]	AUC of integral fructose concentration for dosed group [3]: 1029 nM·h; AUC of integral fructose concentration of dosed group/AUC of Integral fructose concentration of control group [3]: 9.2
6.82	C[C@H]1CCN1c1nc(NC2CC(C(=O)O)C2)c2ccsc2n1 (stereo partly shown) [WX032]	–
7.15	C[C@H]1CCN1c1nc(-c2ccnc(CCC(=O)O)c2)c2ccsc2n1 [WX033]	–
6.96	C[C@H]1CCN1c1nc(N2CC3(CC3C(=O)O)C2)c2cccc(F)c2n1 (stereo partly shown) [WX034]	–
7.16	C[C@H]1CCN1c1nc(N2CC3(CC3C(=O)O)C2)c2cc(Cl)sc2n1 (stereo partly shown) [WX036]	–
6.82	C[C@H]1CCN1c1nc(N2CC3(CC3C(=O)O)C2)c2c(F)csc2n1 (stereo partly shown) [WX037]	–
6.32	C[C@H]1CCN1c1nc(N2CC3(CCC3C(=O)O)C2)c2cc(Cl)sc2n1 (stereo partly shown) [WX038]	–
7.44	C[C@H]1CCN1c1nc(-c2cncc(OCC(=O)O)c2)c2ccsc2n1 [WX039]	–
6.49	C[C@H]1CCN1c1nc(N2CC3(C[C@H]3C(=O)O)C2)c2cccc(F)c2n1 [WX040]	–
7.28	C[C@H]1CCN1c1nc(N2CC3(C[C@@H]3C(=O)O)C2)c2cccc(F)c2n1 [WX041]	AUC of integral fructose concentration for dosed group [3]: 1704 nM·h; AUC of integral fructose concentration of dosed group/AUC of Integral fructose concentration of control group [3]: 6.5
7.09	C[C@H]1CCN1c1nc(N2CC3(C[C@H]3C(=O)O)C2)c2cc(Cl)sc2n1 [WX044]	–
7.52	C[C@H]1CCN1c1nc(N2CC3(C[C@@H]3C(=O)O)C2)c2cc(Cl)sc2n1 [WX045]	–
6.15	C[C@H]1CCN1c1nc(N2C[C@@H]3[C@@H](CC(=O)O)[C@@H]3C2)c2sccc2n1 [WX046]	–
6.20	C[C@H]1CCN1c1nc(-c2cccc(CCC(=O)O)n2)c2ccsc2n1 [WX047]	–
7.04	C[C@H]1CCN1c1nc(-c2cncc(CCC(=O)O)c2)c2ccsc2n1 [WX048]	–
6.68	C[C@H]1CCN1c1nc(N2CC3(C2)CC3(C)C(=O)O)c2cc(Cl)sc2n1 (stereo partly shown) [WX049]	–
6.59	C[C@H]1CCN1c1nc(N2CC3(CC3C(=O)O)C2)c2cccc(Cl)c2n1 (stereo partly shown) [WX050]	–
7.16	C[C@H]1CCN1c1nc(NC2CC3(C2)CC3C(=O)O)c2cc(Cl)sc2n1 (stereo partly shown) [WX051]	–
6.00	C[C@H]1CCN1c1nc(N2CC3(C[C@@H]3CC(=O)O)C2)c2ccsc2n1 [WX054]	–
6.19	C[C@H]1CCN1c1nc(N2CC3(C[C@H]3CC(=O)O)C2)c2ccsc2n1 [WX055]	–
6.44	C[C@H]1CCN1c1nc(N2CC3(C[C@@H]3CC(=O)O)C2)c2cc(Cl)sc2n1 [WX056]	–
6.70	C[C@H]1CCN1c1nc(N2CC3(C[C@H]3CC(=O)O)C2)c2cc(Cl)sc2n1 [WX057]	–
